Columns and labels:
[1] = system: His6-GlgXE378A; assay: BCA reducing-end enzyme assay, GlgXE378A; type: biochemical, Streptomyces venezuelae; settings: 50 µM c-di-GMP, 0.05% glycogen from rabbit, 1 µM enzyme
Protocol: Fig. 2 c-di-GMP stimulates glycogen breakdown activity of GlgX in vitro. a Bicinchoninic acid (BCA) in vitro enzyme assay. The purple copper bicinchoninate complex indicating GlgX-mediated generation of reducing ends in glycogen was quantified by photometric measurements at 562 nm. A562 values were converted into reducing ends [µM glucose equivalents] based on D-glucose as a standard. Reactions contained 0.05% (w/v) glycogen from rabbit, 1 µM GlgX and increasing concentrations of c-di-GMP (0–100 µM). Source data are provided as a Source data file. b BCA assay containing 0.05% of either glycogen from rabbit, pullulan, amylopectin from maize or amylose from potato as substrates. Where appropriate, 1 µM GlgX or 50 µM c-di-GMP were added to the reaction samples. Source data are provided as a Source data file. c BCA assay as in a with or without c-di-GMP (50 µM), 0.05% glycogen from rabbit (S) and 1 µM Vnz25270, GlgX, the active site mutants GlgXD342A, GlgXE378A, GlgXD342A+E378A, or the c-di-GMP-binding mutant variant GlgXDETR49-52 as indicated. […]
Hydrolysis of carbohydrates was assessed in vitro by measuring the accumulation of reducing sugar ends using the BCA assay[42] and D-glucose as a standard for calibration (Supplementary Fig. 11). […] 125 μl sample aliquots were transferred in duplicates to a 96 well plate and the absorbance at 562 nm was measured using a plate reader.

[2] = system: His6-GlgX; assay: DRaCALA with [32P]-c-di-GMP, wild-type GlgX; type: binding, Streptomyces venezuelae
Protocol: Fig. 1 GlgX binds c-di-GMP. a Quantification of c-di-GMP in S. venezuelae cell extracts using LC-MS/MS. Cells were harvested during late vegetative growth (8–10 h), transition to sporulation (12–16 h), and sporulation (18–20 h). Data are presented as the mean of biological replicates ±SD (n = 3). […] Source data are provided in the Source data file. c [^32P]-c-di-GMP binds to GlgX in DRaCALA assay indicated by dark spots in the center of the nitrocellulose membrane. For competition, excess (100 µM) of unlabeled c-di-GMP, c-di-AMP, or GTP was added to the reaction containing [^32P]-c-di-GMP and GlgX.
To determine if the interaction between Vnz29170 (herein called GlgX) and c-di-GMP is direct, we purified an N-terminally His6-tagged GlgX protein and performed nano differential scanning fluorimetry (nanoDSF) thermal shift assays. […] In addition, we used differential radial capillary action of ligand assays (DRaCALA), which allows visualization of protein-bound radiolabeled ligand as a central spot after the application of the protein-ligand mix onto nitrocellulose. Using DRaCALA we confirmed that GlgX from S. venezuelae binds ^32P-labeled c-di-GMP.
For DRaCALA assays, purified His6-GlgX (15 μg) was mixed with 0.5 μl undiluted [^32P]-c-di-GMP (42 nM) (Hartmann Analytic GmbH, Braunschweig) in binding buffer (25 mM Tris pH 8; 150 mM NaCl; 2.5% (v/v) glycerol; 5 mM MgCl2) and the reaction was incubated at rt for 5 min. For competition assays, 100 μM nonlabeled nucleotides were added to the samples and incubated at rt for 5 min prior to the addition of [^32P]-c-di-GMP. Reactions (10 μl) were spotted on the same nitrocellulose membrane (Roth), air dried for 10 min and analyzed via phosphorimaging.

[3] = system: His6-Vnz25270; assay: nanoDSF thermal shift assay, GlgX paralog Vnz25270; type: binding, Streptomyces venezuelae; settings: 10 µM His6-Vnz25270, 1 mM c-di-GMP
Protocol: For label-free thermal shift assay experiments, 10 μM purified protein in 25 mM Tris pH 8, 150 mM NaCl, 2.5% (v/v) glycerol, and 5 mM MgCl2 was incubated without or with (1 mM) of nonlabeled c-di-GMP or c-di-AMP, respectively, at rt for 10 min. Reactions were subsequently analyzed in a Tycho NT.6 (NanoTemper Technologies) device with a 30 K/min thermal ramp and the internal fluorescence at 330 and 350 nm was recorded. Data analysis and calculation of derivatives was done using the internal evaluation features of the Tycho instrument.
(a) 15 µg of purified E. coli His6-GlgX
167 or His6-Vnz25270, respectively, were mixed with 0.5 µl of [32P]-c-di-GMP (Hartmann Analytic
168 GmbH, Braunschweig) in binding buffer (25 mM Tris pH 8.0, 150 mM NaCl, 2.5% (v/v) glycerol
169 and 5 mM MgCl2). 10 µL of the reactions were spotted on the same nitrocellulose membrane (Roth),
170 air dried for 10 min and analyzed by phosphorimaging. (b, c) 10 µM purified His6-Vnz25270 (b) or
171 His6-GlgXE.coli (c) in 25 mM Tris pH 8.0, 150 mM NaCl, 2.5% (v/v) glycerol and 5 mM MgCl2 were
172 incubated without or with (1 mM) c-di-GMP. Reactions were analyzed in a Tycho NT.6
173 (NanoTemper Technologies) device.
(1 picture or pasted object on this page, not shown here)

[4] = target: [RsiG + WhiG]; design: method as in PMID 25171413, PMID 31810759; settings: cited from earlier work

Q: Which results are given for Nc1nc2c(ncn2[C@@H]2O[C@@H]3CO[P@](=O)(O)O[C@H]4[C@@H](O)[C@H](n5cnc6c(=O)[nH]c(N)nc65)O[C@@H]4CO[P@](=O)(O)O[C@H]3[C@H]2O)c(=O)[nH]1 [c-di-GMP, bis-(3′−5′)-cyclic diguanosine monophosphate]?
A: stimulation of enzyme activity by c-di-GMP [1]: could not be stimulated; binding of 32P-labeled c-di-GMP in DRaCALA ([2]; 15 µg His6-GlgX, [32P]-c-di-GMP): binds; competition with 32P-c-di-GMP for binding to GlgX ([2]; excess (100 µM) unlabeled nucleotide): competed; interaction with c-di-GMP by nanoDSF [3]: did not detect any interactions; Kd [4]: 390 ± 50 nM

Source: paper PMC9530166, “Allosteric regulation of glycogen breakdown by the second messenger cyclic di-GMP” (Nature Communications, 2022)
